Test results from patent publication US6420174B1, “Method of producing organogenetic tissue from a plant of the genus Mentha” (Council of Scientific and Industrial Research, priority 2000, dated 2002).

Legend:
[1] = test system: regenerated shoots of Mentha arvensis; experiment: Response of regenerated shoots in different media; format: cell-based; conditions: Mentha arvensis L. cv. Himalaya, 7 days
Description: (§1) The plant variety used in these experiments was cv. Himalaya (U.S. Pat No. PP10935) of Mentha arvensis L. (2n=96). The suckers of M. arvensis L. cv. Himalaya for multiplication of the plant material and future experimentation were obtained from CIMAP's gene bank. For callus production, the explant material was collected from the field grown plants and surface sterilized by washing sequentially with 2% detergent, distilled water containing a few drops of Savlon (Johnson and Johnson, India), 0 1% acidified mercuric chloride and autoclaved distilled water before inoculation. About 1 cm long internode pieces were inoculated in the Murashige and Skoog medium (Murashige T, Skoog F; 1962. A revised medium for rapid growth and bioassay with tobacco tissue cultures. Physiol Planta, 15:473-497) supplemented with 0.2 μg ml^−1 of an auxin (NAA, 1-napthalene acetic acid) and 5 μg ml^−1 of a cytokinin (BAP, benzyl aminopurine). […]
(§2) In the next phase, the callus was sub cultured in three different media: i) the basal medium MSO containing only the vitamins and minerals without any growth hormones; ii) MSA-2 medium which is MSO with 0.2 μg ml^−1 concentration of NAA and 5 μg ml^−1 of a cytokinin BAP; and iii) MT-80 medium which is MSO with only 80 μg ml^−1 menthol. […] The response was recorded every 24 hours over a period of one week and then weekly upto one month. […]

Mentha arvensis callus = experiment: Shooting response of callus in different media; format: cell-based, Mentha arvensis L. cv. Himalaya
Description: as §1, §2

Root pieces = experiment: Response of other explants in different media: root pieces; format: cell-based, Mentha arvensis
Description: (§3) In the next phase, the callus was sub cultured in three different media: i) the basal medium MSO containing only the vitamins and minerals without any growth hormones; ii) MSA-2 medium which is MSO with 0.2 μg ml^−1 concentration of NAA and 5 μg ml^−1 of a cytokinin BAP; and iii) MT-80 medium which is MSO with only 80 μg ml^−1 menthol. On each kind of these media, an independent callus (50 mg ) or 5 independently regenerated shoots were inoculated per flask in 5 replications each. The experiment was conducted in the completely randomized design (CRD) fashion. Cultures were incubated and maintained at 25±2° C. and 400-600 lux light intensity with 16-hour photoperiod. The response was recorded every 24 hours over a period of one week and then weekly upto one month.
(§4) At this stage, the applicants wanted to know whether any other parts of the plant (explants) show similar response as callus and lead to direct regeneration. In the same experimental design we inoculated different parts of the plant in different media and the observations were recorded after 7 and 15 days.

Internodes = experiment: Response of other explants in different media: internodes; format: cell-based, Mentha arvensis; conditions: 7 days
Description: as §3, §4

regenerated shoots = experiment: Characteristics and growth of regenerated shoots (leaf dimensions); format: cell-based, Mentha arvensis; conditions: medium containing 80 μg ml^−1 of menthol
Description: as §3
The leaves were also larger in the shoots regenerated on the medium containing 80 μg ml^−1 of menthol (Table 4).

[2] = test system: in vitro raised somaclones (shootlets); experiment: Earlier screening of in vitro raised somaclones in medium containing toxic concentrations of menthol; format: cell-based, Mentha arvensis; conditions: above 70 μg ml^−1 in the medium
Description: The applicants earlier developed a protocol for screening high menthol yielding plants by inoculating the in vitro raised somaclones in medium containing toxic concentrations of menthol in the tissue culture medium (Patent pending). In this procedure, screening of 2850 variants yielded 30 clones surviving 70 μg ml^−1 of menthol concentration in the medium out of which only 5 stable clones could be isolated which were of high menthol content type in comparison to the parent variety ‘Himalaya’ (U.S. Pat No. PP 10935). […] At this point, the applicants planned experiments to subject the callus directly to menthol selection instead of the regenerated shoots to save on time, space and labour. The logic was to isolate the tolerant cell lines if any, growing from this callus later.

With `CC1CCC(C(C)C)C(O)C1` (stereo not shown) [menthol] the “Toxic concentration at which the regenerated shoots die” value [1] was at least 80 µg/mL, the “Time to visible shoot induction from callus” value (Mentha arvensis callus; MSO medium containing menthol 80 μg ml^−1) was 7 to 10 days and the “Response of transferred callus pieces” value (Mentha arvensis callus; text of Example 2, up to 21 days) was “induced shoot regeneration”. The “Response of root pieces” value (Root pieces; MSO + 60 ppm menthol, 7 days) was “No change”, the “Response of root pieces” value (Root pieces; MSO + 70 ppm menthol, 7 days) was “No change” and the “Response of root pieces” value (Root pieces; MSO + 70 ppm menthol, 15 days) was “Wilting started”. The “Response of root pieces” value (Root pieces; MSO + 80 ppm menthol, 7 days) was “Wilting”, the “Response of root pieces” value (Root pieces; MSO + 80 ppm menthol, 15 days) was “Wilting” and the Response of internodes (Internodes; MSO + 60 ppm menthol) was “Green”. The Response of internodes (Internodes; MSO + 70 ppm menthol) was “Green”, the Response of internodes (Internodes; MSO + 80 ppm menthol) was “Wilting” and the “Growth of menthol-induced shoots compared to shoots growing on other media” value (regenerated shoots) was “more vigorous in growth”. The “Effect on shootlets of increasing menthol concentration further” value [2] was “killed all the shootlets”.
